{
  "source": "paper PMC6934184",
  "about": "“Selective DNA-PKcs inhibition extends the therapeutic index of localized radiotherapy and chemotherapy” (The Journal of Clinical Investigation, 2019)",
  "target": "T1, PIM2 (Homo sapiens, UniProt Q9P1W9)",
  "T1 construct": "purchased Thermo Fisher Scientific (Life Technologies) SelectScreen",
  "T1 sequence (Q9P1W9 whole entry)": "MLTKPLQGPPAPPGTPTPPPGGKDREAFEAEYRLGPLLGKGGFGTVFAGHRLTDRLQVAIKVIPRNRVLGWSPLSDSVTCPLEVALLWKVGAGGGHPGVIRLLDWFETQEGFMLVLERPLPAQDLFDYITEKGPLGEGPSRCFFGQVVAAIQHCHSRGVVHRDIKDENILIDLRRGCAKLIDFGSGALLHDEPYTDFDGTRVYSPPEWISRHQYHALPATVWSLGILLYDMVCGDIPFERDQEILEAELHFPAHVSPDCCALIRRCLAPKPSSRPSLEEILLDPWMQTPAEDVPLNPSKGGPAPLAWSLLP",
  "assay": "SelectScreen Z'LYTE",
  "assay_type": "biochemical",
  "procedure,_shortened": "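SelectScreen broad panel; activity (Z'LYTE, Adapta) plus binding formats. ATP: Km app for CSF1R Z'LYTE; 10 for CAMK1 Adapta. Readout = % per kinase.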",
  "data": [
    {"molecule": "CN(C(=O)CN1CCOCC1)c1ccc2sc3c(-c4cccc5c(=O)cc(N6CC7CCC(C6)O7)oc45)cccc3c2c1", "note": "[NU5455]", "values": [
      {"measurement": "inhibition at 1 µM", "result": -4.3, "unit": "%"}
    ]}
  ]
}
